This note sets out measurements from patent US20080267942A1, “BENZAZEPIN-2(1H)-ONE DERIVATIVES” (Pfizer Limited, priority 2006, published 2008).

The target of test [1] is T1, bovine beta-2 adrenoceptor (Bos taurus, UniProt Q28044).
T1 construct: expressed in transfected cells; host or cells: CHO cells
Briefly: cAMP assay in CHO cells transfected with the bovine beta-2 adrenoceptor (DiscoveRx Hit Hunter cAMP II). As to conditions: CHO cells transfected with bovine beta-2 adrenoceptor, 30 minutes incubation with compound. It counts as cell-based. The procedure: (§1) CHO cells transfected with the bovine or porcine beta-2 adrenceptors were maintained in culture in DMEM/HAMS F12+10% FBS+2 mM glutamine+500 μg/ml geneticin (for the porcine receptor the medium was supplement with 1.5 mM HEPES) at 37° C. with a 5% CO2 atmosphere.
(§2) Cells were plated into 96 well viewplates in medium and incubated overnight at 37° C. with a 5% CO2 atmosphere. The cells were pre-incubated with 0.5 mM IBMX in PBS for 30 minutes prior to incubation with increasing concentrations of experimental compound (5×10^−12 to 10^−5M) for 30 minutes at 37° C. with a 5% CO2 atmosphere. At the end of the incubation time the compound was removed and the cells assayed for cAMP using the DiscoveRx Hit Hunter cAMP II™ assay kit.
(§3) Duplicate samples were run for each experimental compound and the data generated was analysed using EC50 analysis software in Graphpad Prism.
A general note: Cyclic AMP is a second messenger, typically raised through Gs and lowered through Gi signalling.

Test [2] deals with T2, porcine beta-2 adrenoceptor (Sus scrofa, UniProt Q28997).
T2 construct: expressed in transfected cells; host or cells: CHO cells
As to the kind of experiment: cAMP assay in CHO cells transfected with the porcine beta-2 adrenoceptor (DiscoveRx Hit Hunter cAMP II). It counts as cell-based. As to conditions: CHO cells transfected with porcine beta-2 adrenoceptor, 30 minutes incubation with compound. The procedure: as §1, §2, §3

T1 sequence (Q28044 whole entry): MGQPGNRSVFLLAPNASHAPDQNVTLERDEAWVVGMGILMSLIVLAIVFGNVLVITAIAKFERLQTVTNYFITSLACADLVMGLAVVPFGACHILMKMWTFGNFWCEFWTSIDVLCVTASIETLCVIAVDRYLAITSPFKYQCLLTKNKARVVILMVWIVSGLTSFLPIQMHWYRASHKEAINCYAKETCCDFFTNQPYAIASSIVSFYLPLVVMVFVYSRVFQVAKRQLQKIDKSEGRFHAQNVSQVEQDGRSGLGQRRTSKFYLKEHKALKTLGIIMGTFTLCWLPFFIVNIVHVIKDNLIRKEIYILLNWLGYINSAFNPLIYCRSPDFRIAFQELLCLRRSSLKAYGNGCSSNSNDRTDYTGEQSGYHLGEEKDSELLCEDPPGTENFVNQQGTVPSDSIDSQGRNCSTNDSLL
T2 sequence (Q28997 whole entry): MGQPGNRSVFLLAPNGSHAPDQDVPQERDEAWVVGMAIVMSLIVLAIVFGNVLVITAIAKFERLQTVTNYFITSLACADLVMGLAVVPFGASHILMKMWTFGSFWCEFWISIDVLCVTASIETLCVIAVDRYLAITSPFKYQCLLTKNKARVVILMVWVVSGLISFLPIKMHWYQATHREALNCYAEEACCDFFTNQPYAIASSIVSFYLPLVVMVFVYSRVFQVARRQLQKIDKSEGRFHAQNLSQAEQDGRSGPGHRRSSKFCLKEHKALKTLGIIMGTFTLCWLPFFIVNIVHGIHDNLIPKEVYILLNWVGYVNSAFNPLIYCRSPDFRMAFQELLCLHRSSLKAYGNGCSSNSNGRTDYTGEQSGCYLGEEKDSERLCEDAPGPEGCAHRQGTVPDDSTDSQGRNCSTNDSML

In general, EC50 refers to the concentration needed to bring the measured effect to its halfway point. `Cc1nn(C)c(C)c1CCC(C)N[C@@H]1CCn2c(=O)[nH]c3cccc(c32)[C@H]1O` (single isomer, unassigned) [Example 9a, 7-Hydroxy-6-{[1-methyl-3-(1,3,5-trimethyl-1H-pyrazol-4-yl)propyl]amino}-4,5,6,7-tetrahydroimidazo[4,5,1-jk][1]benzazepin-2(1H)-one]: the concentration giving a half-maximal response (EC50) in test [1] is 402 nM; in test [2], 268 nM.

On to `Cc1nn(C)c(C)c1CCC(C)N[C@@H]1CCn2c(=O)[nH]c3cccc(c32)[C@H]1O` (single isomer, unassigned) [Example 9b, 7-Hydroxy-6-{[1-methyl-3-(1,3,5-trimethyl-1H-pyrazol-4-yl)propyl]amino}-4,5,6,7-tetrahydroimidazo[4,5,1-jk][1]benzazepin-2(1H)-one], for which the EC50 is 4.2 nM in test [1] and 2.8 nM in test [2].

With `CCOC(=O)c1[nH]c2ccccc2c1CC(C)NC1CCn2c(=O)[nH]c3cccc(c32)C1O` (single isomer, unassigned) [Example 16, Ethyl 3-(2-{[7-hydroxy-2-oxo-1,2,4,5,6,7-hexahydroimidazo[4,5,1-jk][1]benzazepin-6-yl]amino}propyl)-1H-indole-2-carboxylate], the concentration for a half-maximal effect (EC50) was 26 nM in test [1] and 10 nM in test [2].

`CC(CCc1c[nH]c2ccc(Cl)cc12)N[C@@H]1CCn2c(=O)[nH]c3cccc(c32)[C@H]1O` (single isomer, unassigned) [Example 21a, 6-{[3-(5-Chloro-1H-indol-3-yl)-1-methylpropyl]amino}-7-hydroxy-4,5,6,7-tetrahydroimidazo[4,5,1-jk][1]benzazepin-2(1H)-one]: the EC50 is 1830 nM in test [1] and above 10000 nM in test [2].

Turning to `CC(CCc1c[nH]c2ccc(Cl)cc12)N[C@@H]1CCn2c(=O)[nH]c3cccc(c32)[C@H]1O` (single isomer, unassigned) [Example 21b, 6-{[3-(5-Chloro-1H-indol-3-yl)-1-methylpropyl]amino}-7-hydroxy-4,5,6,7-tetrahydroimidazo[4,5,1-jk][1]benzazepin-2(1H)-one], the 50% effective concentration (EC50) in test [1] was 15 nM; in test [2] it was 11 nM.

Take `Cc1nc(C)c(CCC(C)N[C@@H]2CCn3c(=O)[nH]c4cccc(c43)[C@H]2O)s1` (single isomer, unassigned) [Example 23a, 6-{[3-(2,4-Dimethyl-1,3-thiazol-5-yl)-1-methylpropyl]amino}-7-hydroxy-4,5,6,7-tetrahydroimidazo[4,5,1-jk][1]benzazepin-2(1H)-one]: the EC50 was 153 nM in test [1] and 121 nM in test [2].

Turning to `Cc1nc(C)c(CCC(C)N[C@@H]2CCn3c(=O)[nH]c4cccc(c43)[C@H]2O)s1` (single isomer, unassigned) [Example 23b, 6-{[3-(2,4-Dimethyl-1,3-thiazol-5-yl)-1-methylpropyl]amino}-7-hydroxy-4,5,6,7-tetrahydroimidazo[4,5,1-jk][1]benzazepin-2(1H)-one], the concentration for a half-maximal effect (EC50) is 12 nM in test [1] and 4.9 nM in test [2].

Take `Cc1ncc(CCC(C)N[C@@H]2CCn3c(=O)[nH]c4cccc(c43)[C@H]2O)s1` (single isomer, unassigned) [Example 28b, 7-Hydroxy-6-{[1-methyl-3-(2-methyll-1,3-thiazol-5-yl)propyl]amino}-4,5,6,7-tetrahydroimidazo[4,5,1-jk][1]benzazepin-2(1H)-one]: the half-maximal effective concentration (EC50) in test [1] is 6.6 nM; in test [2], above 10000 nM.

Turning to `CC(CCc1c[nH]c2ccncc12)N[C@@H]1CCn2c(=O)[nH]c3cccc(c32)[C@H]1O` (single isomer, unassigned) [Example 31b, 7-Hydroxy-6-{[1-methyl-3-(1H-pyrrolo[3,2-c]pyridin-3-yl)propyl]amino}-4,5,6,7-tetrahydroimidazo[4,5,1-jk][1]benzazepin-2(1H)-one], the EC50 in test [1] was found to be 58 nM; in test [2], 43 nM.

Turning to `CC(CCc1c[nH]c2cnccc12)N[C@@H]1CCn2c(=O)[nH]c3cccc(c32)[C@H]1O` (single isomer, unassigned) [Example 32b, 7-Hydroxy-6-{[1-methyl-3-(1H-pyrrolo[2,3-c]pyridin-3-yl)propyl]amino}-4,5,6,7-tetrahydroimidazo[4,5,1-jk][1]benzazeiin-2(1H)-one], the EC50 in test [1] was 96 nM; in test [2] it was 1090 nM.

`Cc1ncsc1CCC(C)N[C@@H]1CCn2c(=O)[nH]c3cccc(c32)[C@H]1O` (single isomer, unassigned) [Example 34b, 7-Hydroxy-6-{[1-methyl-3-(4-methyl-1,3-thiazol-5-yl)propyl]amino}-4,5,6,7-tetrahydroimidazo[4,5,1-jk][1]benzazepin-2(1H)-one]: the half-maximal effective concentration (EC50) in test [1] turned out to be 1.4 nM; in test [2] it was 2.1 nM.

Consider `CC(CCc1ccc2[nH]ccc2c1)N[C@@H]1CCn2c(=O)[nH]c3cccc(c32)[C@H]1O` (single isomer, unassigned) [Example 37], for which the EC50 stood at 16 nM in test [1] and 28 nM in test [2].

As for `CC(CCc1cccc2cc[nH]c12)N[C@@H]1CCn2c(=O)[nH]c3cccc(c32)[C@H]1O` (single isomer, unassigned) [Example 38a, 7-Hydroxy-6-{[3-(1H-indol-7-yl)-1-methylpropyl]amino}-4,5,6,7-tetrahydroimidazo[4,5,1-jk][1]benzazepin-2(1H)-one], the EC50 turned out to be 44 nM in test [1] and 79 nM in test [2].

For the compound `CC(CCc1cccc2cc[nH]c12)N[C@@H]1CCn2c(=O)[nH]c3cccc(c32)[C@H]1O` (single isomer, unassigned) [Example 38b, 7-Hydroxy-6-{[3-(1H-indol-7-yl)-1-methylpropyl]amino}-4,5,6,7-tetrahydroimidazo[4,5,1-jk][1]benzazepin-2(1H)-one], the EC50 is 0.8 nM in test [1] and 0.9 nM in test [2].

For `CC(CCc1cccc2cc[nH]c12)N[C@@H]1CCn2c(=O)[nH]c3cccc(c32)[C@H]1O` (single isomer, unassigned) [Example 38c, 7-Hydroxy-6-{[3-(1H-indol-7-yl)-1-methylpropyl]amino}-4,5,6,7-tetrahydroimidazo[4,5,1-jk][1]benzazepin-2(1H)-one], the concentration for a half-maximal effect (EC50) in test [1] was 137 nM; in test [2], 174 nM.

Regarding `CC(CCc1cccnc1N)N[C@@H]1CCn2c(=O)[nH]c3cccc(c32)[C@H]1O` (single isomer, unassigned) [Example 44], the concentration giving a half-maximal response (EC50) in test [1] worked out at 1.3 nM; in test [2] it was 1.8 nM.

As for `CC(CCc1cncc(N)c1)N[C@@H]1CCn2c(=O)[nH]c3cccc(c32)[C@H]1O` (single isomer, unassigned) [Example 45], the half-maximal effective concentration (EC50) in test [1] came out at 1.4 nM; in test [2], 1.1 nM.

For the compound `CC(CCc1ccc(N)nc1)N[C@@H]1CCn2c(=O)[nH]c3cccc(c32)[C@H]1O` (single isomer, unassigned) [Example 46], the EC50 in test [1] worked out at 3 nM; in test [2], 2.8 nM.

Regarding `CC(CCc1cnsc1)N[C@@H]1CCn2c(=O)[nH]c3cccc(c32)[C@H]1O` (single isomer, unassigned) [Example 47], the EC50 was found to be 0.6 nM in test [1] and 0.9 nM in test [2].

Take `Cc1nn(C)c(C)c1CCC(C)N[C@@H]1CCn2c(=O)[nH]c3cccc(c32)[C@H]1O` (single isomer, unassigned) [Example 48]: the concentration giving a half-maximal response (EC50) in test [1] is 3.4 nM; in test [2], 3.1 nM.

Consider `CC(CCc1cncs1)N[C@@H]1CCn2c(=O)[nH]c3cccc(c32)[C@H]1O` (single isomer, unassigned) [Example 49], for which the EC50 in test [1] was 4.7 nM; in test [2], 6.4 nM.

Take `CC(CCn1cnc2ccccc21)N[C@@H]1CCn2c(=O)[nH]c3cccc(c32)[C@H]1O` (single isomer, unassigned) [Example 51]: the concentration for a half-maximal effect (EC50) worked out at 0.6 nM in test [1] and 0.9 nM in test [2].

`CC(CCc1cc(Br)no1)N[C@@H]1CCn2c(=O)[nH]c3cccc(c32)[C@H]1O` (single isomer, unassigned) [Example 52]: the 50% effective concentration (EC50) in test [1] was 1.2 nM; in test [2], 1.3 nM.

Take `Cc1[nH]c2ccc(F)cc2c1CCC(C)N[C@@H]1CCn2c(=O)[nH]c3cccc(c32)[C@H]1O` (single isomer, unassigned) [Example 54]: the EC50 in test [1] is 2.7 nM; in test [2], 3.1 nM.

With `CC(CCc1c[nH]c2cccnc12)N[C@@H]1CCn2c(=O)[nH]c3cccc(c32)[C@H]1O` (single isomer, unassigned) [Example 55], the 50% effective concentration (EC50) in test [1] was 4.4 nM; in test [2], 9.9 nM.

As to `CC(CCc1cnn(C)c1)N[C@@H]1CCn2c(=O)[nH]c3cccc(c32)[C@H]1O` (single isomer, unassigned) [Example 56], the values for the half-maximal effective concentration (EC50) in test [1] and in test [2] were 5.2 nM and 2.7 nM, respectively.

Consider `CC(CCc1c[nH]c2cnccc12)N[C@@H]1CCn2c(=O)[nH]c3cccc(c32)[C@H]1O` (single isomer, unassigned) [Example 57], for which the figures for the EC50 in test [1] and in test [2] were 5.7 nM and 13 nM, respectively.

Consider `CC(CCc1n[nH]c2ccccc12)N[C@@H]1CCn2c(=O)[nH]c3cccc(c32)[C@H]1O` (single isomer, unassigned) [Example 58], for which the EC50 in test [1] is 8.3 nM; in test [2] it was 33 nM.

As to `Cc1nn(C)cc1CCC(C)N[C@@H]1CCn2c(=O)[nH]c3cccc(c32)[C@H]1O` (single isomer, unassigned) [Example 59], the EC50 turned out to be 20 nM in test [1] and 17 nM in test [2].

For the compound `CC(CCc1c[nH]c2cc(C#N)ccc12)N[C@@H]1CCn2c(=O)[nH]c3cccc(c32)[C@H]1O` (single isomer, unassigned) [Example 60], the concentration for a half-maximal effect (EC50) was 23 nM in test [1] and 13 nM in test [2].
